Laboratory results from US5093359A, “Primycin components and process for the separation of the antibiotic complex” (priority 1984, dated 1992).
≈ marks a conversion by molar mass, not a printed value. Read-outs that look alike come from different tables or passages of the source.

How the values were obtained:
[1] = tested on: Pseudomonas acidoverans CCM.283; experiment: MIC, strain 24; settings: CCM.283, 24 h
Experimental: (§1) The antimicrobial activity of the primycin complex and the components thereof is tested on different microorganism strains.
(§2) (Inoculation: 5 × 10^5 /ml, incubation at 37 C.° for

[2] = tested on: Staphylococcus aureus CCM.2515.; experiment: MIC, strain 6; type: cell-based
[3] = tested on: Staphylococcus aureus CCM.2514; experiment: MIC, strain 5; type: cell-based
[4] = tested on: Proteus vulgaris CCM.1799.; experiment: MIC, strain 25; settings: 24 h
Experimental: as §1, §2

[5] = tested on: Staphylococcus aureus CCM.2317.; experiment: MIC, strain 3; type: cell-based
[6] = tested on: Listeria monocytogenes CCM.5576.; experiment: MIC, strain 18; type: cell-based
[7] = tested on: Staphylococcus aureus CCM.2326.; experiment: MIC, strain 4; type: cell-based
[8] = tested on: Bacillus licheniformis CCM.2205.; experiment: MIC, strain 16; type: cell-based
[9] = tested on: Salmonella typhimurium CCM.5445.; experiment: MIC, strain 27; settings: Salmonella enterica, 24 h
Experimental: (§3) The table contains the MIC values (/μg/ml) measured on human pathogenic polyresistant strains.
as §1, §2

[10] = tested on: Bacillus licheniformis CCM.2182.; experiment: MIC, strain 15; type: cell-based
[11] = tested on: Bacillus subtilis CCM.1718.; experiment: MIC, strain 17; type: cell-based
[12] = tested on: Staphylococcus aureus CCM.885.; experiment: MIC, strain 1; type: cell-based
[13] = tested on: Streptococcus agalactiae CCM.5534.; experiment: MIC, strain 11; type: cell-based; settings: Streptococcus agalactiae, CCM.5534.
[14] = tested on: Escherichia coli DSM.30038.; experiment: MIC, strain 28; settings: 24 h
Experimental: as §3, §1, §2

[15] = tested on: Staphylococcus aureus DSM.20231; experiment: MIC, strain 2; type: cell-based; settings: Staphylococcus aureus
[16] = tested on: Streptococcus faecalis CCM.1875.; experiment: MIC, strain 9; type: cell-based; settings: Enterococcus faecalis
[17] = tested on: Bacillus subtilis ATTC.6633.; experiment: MIC, strain 13; type: cell-based
[18] = tested on: Streptococcus agalactiae CCM.5153.; experiment: MIC, strain 10; type: cell-based
[19] = tested on: Bacillus cereus CCM.2010.; experiment: MIC, strain 14; type: cell-based
[20] = tested on: Micrococcus luteus DSM.20030.; experiment: MIC, strain 20; type: cell-based
[21] = tested on: Shigella sonnei CCM.1373.; experiment: MIC, strain 26; settings: 24 h
Experimental: as §3, §1, §2

[22] = tested on: Streptococcus disgalactiae ATTC.9926; experiment: MIC, strain 12; type: cell-based
[23] = tested on: Micrococcus flavus ATCC.10240.; experiment: MIC, strain 19; type: cell-based
[24] = tested on: Pseudomonas fluorescens CCM.2115.; experiment: MIC, strain 23; settings: 24 h
Experimental: as §1, §2

[25] = tested on: Sporosarcina ureae DSM.317; experiment: MIC, strain 21; settings: DSM.317, 24 h
Experimental: as §1, §2

[26] = tested on: Staphylococcus aureus Smith; experiment: MIC, strain 8; type: cell-based
[27] = tested on: Staphylococcus epidermidis CCM.2271; experiment: MIC, strain 7; type: cell-based
[28] = tested on: Pseudomonas aeruginosa CCM.1960.; experiment: MIC, strain 22; settings: 24 h
Experimental: as §1, §2

[29] = ATTC.9926, 24 h, strain 12, Table O, 24 hours

**Q.** What does the source list for CCCCC1C(=O)OC(C(C)C(O)CCCNC(=N)N)C(C)C=C(C)CCCCC(O)CC(O)CC(O)CC(O)CC(O)CC=C(C)C(O)CCCC(O)CCCC(O)CCC(C)C1O (centres unmarked) [B1, hydropricin]?
**A.** MIC [1]: 25 µg/mL (≈ 26.9 µM); MIC ([2]; strain 6, Table O, 24 hours, read-out: MIC): 0.1 µg/mL (≈ 0.107 µM); MIC ([2]; strain 6, Tables I-XIII, 25 hours, read-out: MIC): 0.1 µg/mL (≈ 0.107 µM); MIC ([3]; CCM.2514, strain 5, Table O, 24 hours, read-out: MIC): 0.1 µg/mL (≈ 0.107 µM); MIC ([3]; CCM.2514, strain 5, Tables I-XIII, 25 hours, read-out: MIC): 0.1 µg/mL (≈ 0.107 µM); MIC [4]: 50 µg/mL (≈ 53.7 µM); MIC ([5]; strain 3, Table O, 24 hours, read-out: MIC): 0.1 µg/mL (≈ 0.107 µM); MIC ([5]; strain 3, Tables I-XIII, 25 hours, read-out: MIC): 0.1 µg/mL (≈ 0.107 µM); MIC ([6]; strain 18, Table O, 24 hours, read-out: MIC): 0.25 µg/mL (≈ 0.269 µM); MIC ([6]; strain 18, Tables I-XIII, 25 hours, read-out: MIC): 0.25 µg/mL (≈ 0.269 µM); MIC ([7]; strain 4, Table O, 24 hours, read-out: MIC): 0.25 µg/mL (≈ 0.269 µM); MIC ([7]; strain 4, Tables I-XIII, 25 hours, read-out: MIC): 0.25 µg/mL (≈ 0.269 µM); MIC ([8]; strain 16, Table O, 24 hours, read-out: MIC): 0.25 µg/mL (≈ 0.269 µM); MIC ([8]; strain 16, Tables I-XIII, 25 hours, read-out: MIC): 0.25 µg/mL (≈ 0.269 µM); MIC [9]: 50 µg/mL (≈ 53.7 µM); MIC ([10]; strain 15, Table O, 24 hours, read-out: MIC): 0.25 µg/mL (≈ 0.269 µM); MIC ([10]; strain 15, Tables I-XIII, 25 hours, read-out: MIC): 0.25 µg/mL (≈ 0.269 µM); MIC ([11]; 24 h, strain 17, Table O, 24 hours, read-out: MIC): 0.25 µg/mL (≈ 0.269 µM); MIC ([11]; 25 h, strain 17, Tables I-XIII, 25 hours, read-out: MIC): 0.25 µg/mL (≈ 0.269 µM); MIC ([12]; strain 1, Table O, 24 hours, read-out: MIC): 0.5 µg/mL (≈ 0.537 µM); MIC ([12]; strain 1, Tables I-XIII, 25 hours, read-out: MIC): 0.5 µg/mL (≈ 0.537 µM); MIC ([13]; 24 h, strain 11, Table O, 24 hours, read-out: MIC): 1 µg/mL (≈ 1.07 µM); MIC ([13]; 25 h, strain 11, Tables I-XIII, 25 hours, read-out: MIC): 1 µg/mL (≈ 1.07 µM); MIC [14]: 50 µg/mL (≈ 53.7 µM); MIC ([15]; DSM.20231, 24 h, strain 2, Table O, 24 hours, read-out: MIC): 0.1 µg/mL (≈ 0.107 µM); MIC ([16]; strain 9, Table O, 24 hours, read-out: MIC): 2.5 µg/mL (≈ 2.69 µM); MIC ([16]; strain 9, Tables I-XIII, 25 hours, read-out: MIC): 2.5 µg/mL (≈ 2.69 µM); MIC ([17]; 24 h, strain 13, Table O, 24 hours, read-out: MIC): 0.1 µg/mL (≈ 0.107 µM); MIC ([18]; strain 10, Table O, 24 hours, read-out: MIC): 0.5 µg/mL (≈ 0.537 µM); MIC ([18]; strain 10, Tables I-XIII, 25 hours, read-out: MIC): 0.5 µg/mL (≈ 0.537 µM); MIC ([19]; 24 h, strain 14, Table O, 24 hours, read-out: MIC): 0.25 µg/mL (≈ 0.269 µM); MIC ([20]; strain 20, Table O, 24 hours, read-out: MIC): 0.075 µg/mL (≈ 0.0806 µM); MIC ([20]; strain 20, Tables I-XIII, 25 hours, read-out: MIC): 0.075 µg/mL (≈ 0.0806 µM); MIC [21]: 50 µg/mL (≈ 53.7 µM); MIC [22, 29]: 2.5 µg/mL (≈ 2.69 µM); MIC ([23]; strain 19, Table O, 24 hours, read-out: MIC): 0.05 µg/mL (≈ 0.0537 µM); MIC ([23]; strain 19, Tables I-XIII, 25 hours, read-out: MIC): 0.05 µg/mL (≈ 0.0537 µM); MIC [24]: 25 µg/mL (≈ 26.9 µM); MIC [25]: 0.025 µg/mL (≈ 0.0269 µM); MIC ([26]; strain 8, Table O, 24 hours, read-out: MIC): 0.5 µg/mL (≈ 0.537 µM); MIC ([26]; strain 8, Tables I-XIII, 25 hours, read-out: MIC): 0.5 µg/mL (≈ 0.537 µM); MIC ([27]; CCM.2271, strain 7, Table O, 24 hours, read-out: MIC): 0.25 µg/mL (≈ 0.269 µM); MIC ([27]; CCM.2271, strain 7, Tables I-XIII, 25 hours, read-out: MIC): 0.25 µg/mL (≈ 0.269 µM); MIC [28]: 25 µg/mL (≈ 26.9 µM)

**Q.** What does the source list for CCCCC1C(=O)OC(C(C)C(O)CCCNC(=N)N)C(C)C=C(C)CCCCC(O)CC(O)CC(O)CC(O)CC(O)C(OC2OC(CO)C(O)C2O)C=C(C)C(O)CCCC(O)CCCC(O)CCC(C)C1O (centres unmarked) [A1, chinopricin]?
**A.** MIC [1]: 25 µg/mL (≈ 23.2 µM); MIC ([2]; 24 h): 0.25 µg/mL (≈ 0.232 µM); MIC ([2]; 25 h): 0.25 µg/mL (≈ 0.232 µM); MIC ([3]; CCM.2514, 24 h): 0.25 µg/mL (≈ 0.232 µM); MIC ([3]; CCM.2514, 25 h): 0.25 µg/mL (≈ 0.232 µM); MIC [4]: 50 µg/mL (≈ 46.4 µM); MIC ([5]; 24 h): 0.25 µg/mL (≈ 0.232 µM); MIC ([5]; 25 h): 0.25 µg/mL (≈ 0.232 µM); MIC ([6]; 24 h): 0.5 µg/mL (≈ 0.464 µM); MIC ([6]; 25 h): 0.5 µg/mL (≈ 0.464 µM); MIC ([7]; 24 h): 0.25 µg/mL (≈ 0.232 µM); MIC ([7]; 25 h): 0.25 µg/mL (≈ 0.232 µM); MIC ([8]; 24 h): 0.25 µg/mL (≈ 0.232 µM); MIC ([8]; 25 h): 0.25 µg/mL (≈ 0.232 µM); MIC [9]: 50 µg/mL (≈ 46.4 µM); MIC ([10]; 24 h): 0.25 µg/mL (≈ 0.232 µM); MIC ([10]; 25 h): 0.25 µg/mL (≈ 0.232 µM); MIC ([11]; 24 h): 0.25 µg/mL (≈ 0.232 µM); MIC ([11]; 25 h): 0.25 µg/mL (≈ 0.232 µM); MIC ([12]; 24 h): 0.25 µg/mL (≈ 0.232 µM); MIC ([12]; 25 h): 0.25 µg/mL (≈ 0.232 µM); MIC ([13]; 24 h): 1 µg/mL (≈ 0.927 µM); MIC ([13]; 25 h): 1 µg/mL (≈ 0.927 µM); MIC [14]: 50 µg/mL (≈ 46.4 µM); MIC ([15]; DSM.20231, 24 h): 0.05 µg/mL (≈ 0.0464 µM); MIC ([15]; DSM.20231, 25 h): 0.05 µg/mL (≈ 0.0464 µM); MIC ([16]; 24 h): 2.5 µg/mL (≈ 2.32 µM); MIC ([16]; 25 h): 2.5 µg/mL (≈ 2.32 µM); MIC ([17]; 24 h): 0.25 µg/mL (≈ 0.232 µM); MIC ([17]; 25 h): 0.25 µg/mL (≈ 0.232 µM); MIC ([18]; 24 h): 0.75 µg/mL (≈ 0.695 µM); MIC ([18]; 25 h): 0.75 µg/mL (≈ 0.695 µM); MIC ([19]; 24 h): 0.25 µg/mL (≈ 0.232 µM); MIC ([19]; 25 h): 0.25 µg/mL (≈ 0.232 µM); MIC ([20]; 24 h): 0.05 µg/mL (≈ 0.0464 µM); MIC ([20]; 25 h): 0.05 µg/mL (≈ 0.0464 µM); MIC [21]: 50 µg/mL (≈ 46.4 µM); MIC [22, 29]: 2.5 µg/mL (≈ 2.32 µM); MIC ([22]; ATTC.9926, 25 h, strain 12, Tables I-XIII, 25 hours): 2.5 µg/mL (≈ 2.32 µM); MIC ([23]; 24 h): 0.075 µg/mL (≈ 0.0695 µM); MIC ([23]; 25 h): 0.075 µg/mL (≈ 0.0695 µM); MIC [24]: 25 µg/mL (≈ 23.2 µM); MIC [25]: 0.025 µg/mL (≈ 0.0232 µM); MIC ([26]; 24 h): 0.25 µg/mL (≈ 0.232 µM); MIC ([26]; 25 h): 0.25 µg/mL (≈ 0.232 µM); MIC ([27]; CCM.2271, 24 h): 0.75 µg/mL (≈ 0.695 µM); MIC ([27]; CCM.2271, 25 h): 0.75 µg/mL (≈ 0.695 µM); MIC [28]: 25 µg/mL (≈ 23.2 µM)
